Measured values as given in patent publication US20220313640A1 (Concert Pharmaceuticals, Inc., priority 2019, published 2022).
Where two headings read alike, the source gives them in different places.

How the values were obtained:
[1] = target: T1, human NMDAR subunits GluN1 and GluN2A (Homo sapiens, UniProt Q05586); test: NMDA receptor activation in automated patch clamp system (ScreenPatch), HEK293 cells; type: cell-based; settings: 0.003 to 10 μM, Compound 100 versus D-serine
T1 construct: expressed in transfected cells; host or cells: HEK293
Description: Peak current and steady state current were measured. The activity at the NMDA receptor was indistinguishable for the two compounds.

[2] = Nephrotoxicity dose response of non-deuterated D-serine in male Sprague-Dawley rats, 30-300 mg/kg PO; type: in vivo; settings: 24 hr samples at the 150 and 300 mg/kg doses, compared to control and reference values
Description: (§1) The pharmacokinetic profile of non-deuterated D-serine was investigated in male Sprague-Dawley rats. […] Plasma was collected and analyzed for the non-deuterated D-serine. Additional blood was collected and analyzed for the full clinical chemistry profile.

[3] = Pharmacokinetics of non-deuterated D-serine in male Sprague-Dawley rats, 300 mg/kg PO; type: in vivo; settings: rat, mean
Description: (§2) The hippocampus, cortex and plasma were collected and analyzed. Additional blood was collected and were analyzed for the full clinical chemistry profile. Urine was also collected and examined for glucose and total protein. […] The mean plasma, hippocampus, and cortex concentration at 1 hour are 19200 ng/mL, 674 ng/g, and 754 ng/g; respectively. The mean plasma, hippocampus, and cortex concentrations at 8 hours were 11250 ng/mL, 17725 ng/g, and 11875 ng/g, respectively. […] Blood urea nitrogen and creatinine levels were elevated.

[4] = Pharmacokinetic profile of Compound 100 versus non-deuterated D-serine in male Sprague-Dawley rats, 150 mg/kg PO; type: in vivo; settings: male, Sprague-Dawley, rat, fasted, plasma, mean
Description: (§3) The pharmacokinetic profile of Compound 100 was investigated in male Sprague-Dawley rats compared with that of non-deuterated D-serine. […] Plasma was collected and analyzed for Compound 100 and non-deuterated D-Serine. Additional blood was collected and analyzed for the full clinical chemistry profile.

[5] = Nephrotoxicity of non-deuterated D-serine at 300 mg/kg in male Sprague-Dawley rats (clinical chemistry, urine); type: in vivo; settings: 300 mg/kg PO
Description: as §2

[6] = Randomized single dose crossover plasma PK of Compound 100 versus D-serine in healthy volunteers; type: in vivo, human; settings: single 0.25 g oral solution, fasted, N = 11
Description: Thirteen healthy volunteers between the ages of 18 to 55 were enrolled in the study. […] Period 1 dosing occurred within 14 days of screening. […] Similarly, in Period 2, the 2 subjects in the sentinel group received the alternate treatment after a 4-day washout and approximately 2 days prior to the remaining subjects receiving their Period 2 dose. […] Water consumption was restricted from 1 hour prior to dosing until 1 hour after dosing. Subjects fasted for approximately 3 hours after dosing and remained upright or semi-supine during this period. A meal was provided 3-4 hours after the dose. Meal times and contents were standardized until the last blood sample was collected for PK assessments. […] Plasma samples were stored in labeled tubes at approximately -80° C.

[7] = Pharmacokinetics of deuterated and non-deuterated D-serine in male Sprague Dawley rats, PO 10 mg/kg; type: in vivo; settings: rat, 0.5% Methylcellulose, plasma
Description: Three rats were used for each group. Blood was collected at the following time points: for IV dosing: pre-dose, 0.05, 0.167, 0.5, 1, 2, 4, 6, 8 and 12 hours post-dose; for PO dosing: pre-dose, 0.25, 0.5, 1, 2, 4, 6, 8 and 12 hours post-dose PO. Urine was collected at pre-dose (minimum 12 hours), 0-6, 6-12 and 12-24 hours. Plasma samples were analyzed and quantified for dosed compound LC-MS/MS.

[8] = Nephrotoxicity comparison of Compound 100 and non-deuterated D-serine at doses from 150 mg/kg to 750 mg/kg; type: in vivo, rats
[9] = Pharmacokinetics dose response of non-deuterated D-serine in male Sprague-Dawley rats, 30-300 mg/kg PO; type: in vivo; settings: rat, plasma; for Tmax: po
Description: as §1

[10] = Nephrotoxicity of Compound 100 and non-deuterated D-serine in male Sprague-Dawley rats, 150 mg/kg PO (BUN, creatinine, GGT); type: in vivo
Description: as §3

[11] = 150 mg/kg PO, fasted, mean (CV %)

## NC(CO)C(=O)O (stereo in doubt) [Non-deuterated D-Serine, D-serine]
[1]
  activity at the NMDA receptor (peak current and steady state current): indistinguishable
[2]
  creatinine level: Elevated levels
  gamma glutamyl transferase (GGT) level: Elevated levels
  urea nitrogen level: Elevated levels
[3]; cortex, endogenous level not subtracted, read-out: Cortex concentration
  concentration at 8 h: 11900 ng/g
[3]; fasted, plasma
  Tmax: 30 min
[3]; fasted, plasma, endogenous level subtracted
  AUC(0-inf): 500 µg·h/mL
[3]; hippocampus, endogenous level not subtracted, read-out: Hippocampus concentration
  concentration at 8 h: 17700 ng/g
[3]; plasma, endogenous level subtracted, read-out: Plasma concentration
  concentration at 8 h: 11.2 µg/mL
[4]
  AUC(0-inf): 349 µg·h/mL
[4]; read-out: Cmax
  Cmax: 180 µg/mL
[5]
  Blood urea nitrogen level: elevated
  creatinine level: elevated
  glucose in urine: presence of glucose was observed
[6]; human, plasma
  Tmax: 60 min
[6]; human, plasma, mean
  AUC(0-inf): 32.5 µg·h/mL
  Cmax: 4.09 µg/mL
  half-life: 1030 min
[6]; mean
  CL/F: 7.9 L/h
[7]
  Tmax: 25 min
[8]; dose escalation 150 mg/kg to 750 mg/kg
  gross signs of nephrotoxicity: only observed in rats receiving non-deuterated D-serine
[8]; doses from 150 mg/kg to 750 mg/kg PO
  changes in BUN or creatinine: increasingly elevated levels
[9]; [11]
  AUC(0-inf): 349 µg·h/mL
  Cmax: 180 µg/mL
[9]; 30 mg/kg, 30 mg/kg PO, fasted, mean
  Tmax: 30 min
[9]; 75 mg/kg, 75 mg/kg PO, fasted, mean
  Tmax: 30 min
[9]; 100 mg/kg, 100 mg/kg PO, fasted, mean
  Tmax: 30 min
[9]; 150 mg/kg, 150 mg/kg PO, fasted, mean
  Tmax: 18 min
[9]; 300 mg/kg, 300 mg/kg PO, fasted, mean
  Tmax: 30 min
[9]; 300 mg/kg, all doses 30, 75, 100, 150, and 300 mg/kg PO
  Tmax: 18 to 30 min
[10]
  levels of biomarkers of nephrotoxicity: caused an increase
[10]; 8 hr and 24 hr serum samples
  blood urea nitrogen (BUN) level: Elevated levels
[10]; 24 hr serum samples
  creatinine level: Elevated levels
  gamma glutamyl transferase (GGT) level: Elevated levels
